Measured values: US20240058422A1, “GLUCAGON-LIKE PEPTIDE-1 RECEPTOR ANTAGONISTS” (INDIANA UNIVERSITY RESEARCH AND TECHNOLOGY CORPORATION, priority 2022, published 2024)
≈ marks a conversion by molar mass, not a printed value. Read-outs that look alike come from different tables or passages of the source. Starred links: 1 amine or outer side, 2 acyl side, 3 side chain; linkers in the order of their positions; H or OH if unused. Non-standard residues stand in square brackets, D forms with d. Residues, ends and D or L forms follow the SMILES beside them. Groups on a side chain read outwards from the residue. *: point of attachment. γGlu = O=C(O)[C@H](CCC(=O)[*:2])N[*:1]; Palmitoyl = CCCCCCCCCCCCCCCC(=O)*; AEEA = NCCOCCOCC(=O)O; Aib = CC(C)(N)C(=O)O

Assays:
[1] = Solubility in buffer
[2] = target: GLP-1R (Homo sapiens, UniProt P43220); assay: GLP-1 receptor-mediated cAMP induction, luciferase reporter gene antagonism assay; type: cell-based; design: host or cells: HEK 293; settings: antagonism of 0.05 nM GLP-1, HEK 293 cells
GLP-1R, sequence (P43220 24-463): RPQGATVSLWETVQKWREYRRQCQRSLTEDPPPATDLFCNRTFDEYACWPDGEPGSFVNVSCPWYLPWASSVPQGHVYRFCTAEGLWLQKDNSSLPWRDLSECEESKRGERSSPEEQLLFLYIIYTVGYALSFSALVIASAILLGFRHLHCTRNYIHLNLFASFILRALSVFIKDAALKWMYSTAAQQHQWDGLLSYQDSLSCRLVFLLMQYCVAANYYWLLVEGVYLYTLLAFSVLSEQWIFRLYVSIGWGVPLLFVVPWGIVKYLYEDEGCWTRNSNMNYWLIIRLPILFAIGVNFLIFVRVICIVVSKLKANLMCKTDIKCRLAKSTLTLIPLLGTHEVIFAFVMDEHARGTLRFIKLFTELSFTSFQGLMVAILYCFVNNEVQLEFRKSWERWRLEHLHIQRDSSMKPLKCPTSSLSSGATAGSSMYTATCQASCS
Experimental: GLP-1 Receptor-Mediated cAMP Induction The ability of peptides to stimulate or block cAMP induction at the GLP-1 receptor was examined by a luciferase-based reporter gene assay. Cotransfection of HEK 293 cells with the human GLP-1 receptor (Open Biosystems) and a cAMPinducible (cAMPresponsive element) luciferase gene constituted the cellular construct where receptor activation could be measured. Bioassays were performed by first serum depriving the cells for 16 h in 0.25% bovine growth serum (HyClone)-supplemented Dulbecco's modified Eagle's medium (Invitrogen) and then adding serial dilutions of the peptides over the appropriate concentration ranges in 96-well poly-D-lysine-coated plates (BD Biosciences). For antagonism assays, a constant concentration of GLP-1 (0.05 nM) was added to the assay plate after the diluted peptides. Incubation continued for 5 h at 37° C., 5% CO2 and was followed by the addition of an equivalent volume (100 μL) of LucLite luminescence substrate reagent (Perkin-Elmer). MicroBeta 1450 liquid scintillation counting (Perkin-Elmer) quantified the luminescence signal in counts per second (cps) after shaking the plate at 600 rpm for 3 min. Data was plotted using Origin software (OriginLab) and the effective concentration 50 (EC50) or inhibitory concentration 50 (IC50) was determined by sigmoidal fitting. Potency was determined by comparative analysis of relative EC50 or IC50 values. Each experiment was repeated at least three times with each sample assayed in duplicate.

[3] = 80 mM ammonium bicarbonate buffer, pH 7.7
[4] = PBS, pH 7.7, Solubility [mg/mL] PBS pH7.7, Table 4, PBS pH7.7
[5] = Table 4, Aib variants of 9-40am Jant4 K40[C16], read-out: Bioactivity IC50
[6] = 80 mM ammonium bicarbonate buffer, pH 7.7, Solubility [mg/mL] 80 mM AmBicarb pH7.7, Table 2, 80 mM AmBicarb pH7.7

`CCCCCCCCCCCCCCCC(=O)NCCCC[C@H](NC(=O)[C@H](CO)NC(=O)[C@@H]1CCCN1C(=O)[C@@H]1CCCN1C(=O)[C@@H]1CCCN1C(=O)[C@H](C)NC(=O)CNC(=O)[C@H](CO)NC(=O)[C@H](CO)NC(=O)[C@@H]1CCCN1C(=O)CNC(=O)CNC(=O)[C@H](CCCCN)NC(=O)[C@@H](NC(=O)[C@H](CC(C)C)NC(=O)[C@H](Cc1c[nH]c2ccccc12)NC(=O)[C@H](C)NC(=O)[C@@H](NC(=O)[C@H](Cc1ccccc1)NC(=O)[C@H](CCC(=O)O)NC(=O)[C@H](CCCNC(=N)N)NC(=O)C(C)(C)NC(=O)[C@H](C)NC(=O)[C@H](CCC(N)=O)NC(=O)[C@H](CCC(=O)O)NC(=O)[C@H](CCC(=O)O)NC(=O)[C@H](CC(C)C)NC(=O)[C@H](Cc1ccc(O)cc1)NC(=O)[C@H](CO)NC(=O)[C@H](CO)NC(=O)[C@@H](NC(=O)[C@@H](N)CC(=O)O)C(C)C)[C@@H](C)CC)C(C)C)C(N)=O` [compound 45] (H-DVSSYLEEQA[Aib]REFIAWLVKGGPSSGAPPPSK(Palmitoyl)-NH2; N-terminus assumed) showed a solubility [1, 3] of 11.1 mg/mL (≈ 3.06 mM), a solubility [1, 4] of 0.4 mg/mL (≈ 0.11 mM) and an IC50 [2, 5] of 8 nM.
In the case of `CCCCCCCCCCCCCCCC(=O)NCCCC[C@H](NC(=O)[C@H](CO)NC(=O)[C@@H]1CCCN1C(=O)[C@@H]1CCCN1C(=O)[C@@H]1CCCN1C(=O)[C@H](C)NC(=O)CNC(=O)[C@H](CO)NC(=O)[C@H](CO)NC(=O)[C@@H]1CCCN1C(=O)CNC(=O)CNC(=O)[C@H](CCCCN)NC(=O)[C@@H](NC(=O)[C@H](CC(C)C)NC(=O)[C@H](Cc1c[nH]c2ccccc12)NC(=O)[C@H](C)NC(=O)[C@@H](NC(=O)[C@H](Cc1ccccc1)NC(=O)[C@H](CCC(=O)O)NC(=O)[C@H](CCCNC(=N)N)NC(=O)[C@@H](NC(=O)C(C)(C)NC(=O)[C@H](CCC(N)=O)NC(=O)[C@H](CCC(=O)O)NC(=O)[C@H](CCC(=O)O)NC(=O)[C@H](CC(C)C)NC(=O)[C@H](Cc1ccc(O)cc1)NC(=O)[C@H](CO)NC(=O)[C@H](CO)NC(=O)[C@@H](NC(=O)[C@@H](N)CC(=O)O)C(C)C)C(C)C)[C@@H](C)CC)C(C)C)C(N)=O` [compound 46] (H-DVSSYLEEQ[Aib]VREFIAWLVKGGPSSGAPPPSK(Palmitoyl)-NH2; N-terminus assumed), the solubility [1, 3] is reported as 17.5 mg/mL (≈ 4.79 mM), the solubility [1, 4] is reported as 0.7 mg/mL (≈ 0.192 mM) and the IC50 [2, 5] is reported as 7 nM.
Work on `CCCCCCCCCCCCCCCC(=O)NCCCC[C@H](NC(=O)[C@H](CO)NC(=O)[C@@H]1CCCN1C(=O)[C@@H]1CCCN1C(=O)[C@@H]1CCCN1C(=O)[C@H](C)NC(=O)CNC(=O)[C@H](CO)NC(=O)[C@H](CO)NC(=O)[C@@H]1CCCN1C(=O)CNC(=O)CNC(=O)[C@H](CCCCN)NC(=O)[C@@H](NC(=O)[C@H](CC(C)C)NC(=O)[C@H](Cc1c[nH]c2ccccc12)NC(=O)[C@H](C)NC(=O)[C@@H](NC(=O)[C@H](Cc1ccccc1)NC(=O)[C@H](CCC(=O)O)NC(=O)[C@H](CCCNC(=N)N)NC(=O)[C@@H](NC(=O)[C@H](C)NC(=O)[C@H](CCC(N)=O)NC(=O)[C@H](CCC(=O)O)NC(=O)[C@@H](CCC(=O)O)NC(=O)[C@H](CC(C)C)NC(=O)[C@H](Cc1ccc(O)cc1)NC(=O)[C@H](CO)NC(=O)[C@H](CO)NC(=O)[C@@H](NC(=O)[C@@H](N)CC(=O)O)C(C)C)C(C)C)[C@@H](C)CC)C(C)C)C(N)=O` [compound 49] (H-DVSSYL[dE]EQAVREFIAWLVKGGPSSGAPPPSK(Palmitoyl)-NH2; N-terminus assumed) yielded a solubility ([1]; 80 mM ammonium bicarbonate buffer, pH 7.7, Solubility [mg/mL] 80 mM/AmBicarb pH7.7, Table 5, 80 mM AmBicarb pH7.7) greater than 20 mg/mL and an IC50 ([2]; Table 5, d-AA variants of 9-40am Jant4 K40[C16], read-out: Bioactivity KC50) of 23 nM.
Compound `CCCCCCCCCCCCCCCC(=O)N[C@@H](CCC(=O)NCCOCCOCC(=O)NCCCC[C@H](NC(=O)[C@H](CO)NC(=O)[C@@H]1CCCN1C(=O)[C@@H]1CCCN1C(=O)[C@@H]1CCCN1C(=O)[C@H](C)NC(=O)CNC(=O)[C@H](CO)NC(=O)[C@H](CO)NC(=O)[C@@H]1CCCN1C(=O)CNC(=O)CNC(=O)[C@H](CCCCN)NC(=O)[C@@H](NC(=O)[C@H](CC(C)C)NC(=O)[C@H](Cc1c[nH]c2ccccc12)NC(=O)[C@H](C)NC(=O)[C@@H](NC(=O)[C@H](Cc1ccccc1)NC(=O)[C@H](CCC(=O)O)NC(=O)[C@H](CCCNC(=N)N)NC(=O)[C@@H](NC(=O)[C@H](C)NC(=O)[C@H](CCC(N)=O)NC(=O)[C@H](CCC(=O)O)NC(=O)[C@H](CCC(=O)O)NC(=O)[C@H](CC(C)C)NC(=O)[C@H](Cc1ccc(O)cc1)NC(=O)[C@H](CO)NC(=O)[C@H](CO)NC(=O)[C@@H](NC(=O)[C@@H](N)CC(=O)O)C(C)C)C(C)C)[C@@H](C)CC)C(C)C)C(N)=O)C(=O)O` [compound 56] (H-DVSSYLEEQAVREFIAWLVKGGPSSGAPPPSK([AEEA-γGlu-Palmitoyl])-NH2; N-terminus assumed) has a solubility [1, 6] greater than 20 mg/mL.
For `CCCCCCCCCCCCCCCC(=O)N[C@@H](CCC(=O)N[C@@H](CCC(=O)NCCOCCOCC(=O)NCCOCCOCC(=O)NCCCC[C@H](NC(=O)[C@H](CO)NC(=O)[C@@H]1CCCN1C(=O)[C@@H]1CCCN1C(=O)[C@@H]1CCCN1C(=O)[C@H](C)NC(=O)CNC(=O)[C@H](CO)NC(=O)[C@H](CO)NC(=O)[C@@H]1CCCN1C(=O)CNC(=O)CNC(=O)[C@H](CCCCN)NC(=O)[C@@H](NC(=O)[C@H](CC(C)C)NC(=O)[C@H](Cc1c[nH]c2ccccc12)NC(=O)[C@H](C)NC(=O)[C@@H](NC(=O)[C@H](Cc1ccccc1)NC(=O)[C@H](CCC(=O)O)NC(=O)[C@H](CCCNC(=N)N)NC(=O)[C@@H](NC(=O)[C@H](C)NC(=O)[C@H](CCC(N)=O)NC(=O)[C@H](CCC(=O)O)NC(=O)[C@H](CCC(=O)O)NC(=O)[C@H](CC(C)C)NC(=O)[C@H](Cc1ccc(O)cc1)NC(=O)[C@H](CO)NC(=O)[C@H](CO)NC(=O)[C@@H](NC(=O)[C@@H](N)CC(=O)O)C(C)C)C(C)C)[C@@H](C)CC)C(C)C)C(N)=O)C(=O)O)C(=O)O` [compound 58] (H-DVSSYLEEQAVREFIAWLVKGGPSSGAPPPSK([AEEA-AEEA-γGlu-γGlu-Palmitoyl])-NH2; N-terminus assumed), the solubility [1, 6] was greater than 25 mg/mL.
With `CCCCCCCCCCCCCCCC(=O)NCCCC[C@H](NC(=O)[C@H](CO)NC(=O)[C@@H]1CCCN1C(=O)[C@@H]1CCCN1C(=O)[C@@H]1CCCN1C(=O)[C@H](C)NC(=O)CNC(=O)[C@H](CO)NC(=O)[C@H](CO)NC(=O)[C@@H]1CCCN1C(=O)CNC(=O)CNC(=O)[C@H](CCCCN)NC(=O)[C@@H](NC(=O)[C@H](CC(C)C)NC(=O)[C@H](Cc1c[nH]c2ccccc12)NC(=O)C(C)(C)NC(=O)[C@@H](NC(=O)[C@H](Cc1ccccc1)NC(=O)[C@H](CCC(=O)O)NC(=O)[C@H](CCCNC(=N)N)NC(=O)[C@@H](NC(=O)[C@H](C)NC(=O)[C@H](CCC(N)=O)NC(=O)[C@H](CCC(=O)O)NC(=O)[C@H](CCC(=O)O)NC(=O)[C@H](CC(C)C)NC(=O)[C@H](Cc1ccc(O)cc1)NC(=O)[C@H](CO)NC(=O)[C@H](CO)NC(=O)[C@@H](NC(=O)[C@@H](N)CC(=O)O)C(C)C)C(C)C)[C@@H](C)CC)C(C)C)C(N)=O` [compound 83] (H-DVSSYLEEQAVREFI[Aib]WLVKGGPSSGAPPPSK(Palmitoyl)-NH2) the solubility [1, 3] was 12.6 mg/mL (≈ 3.45 mM) and the solubility ([1]; PBS, pH 7.7) was 0.3 mg/mL (≈ 0.0821 mM).
